How the values were obtained:
[1] = tested on: bovine microtubule protein; experiment: In vitro ED50 MT polymerization study (DAPI fluorescence tubulin assay); type: biochemical; details: for ED50 Compound/ED50 Paclitaxel: ratio; for EC50: tubulin polymerization, 37° C. 30 minutes, maximum assembly = 25 μM paclitaxel
Description: In Vitro ED50 MT Polymerization Study
In this tubulin binding assay, microtubule protein (MTP) is used as a substrate. The assay contains bovine tubulin plus microtubule associated proteins (MAP). MTP is polymerized into microtubules in the presence of DAPI (4′,6′-diamidino-2-phenylindole), a fluorescent compound. DAPI binds to tubulin; when microtubules are formed and there is an enhancement of fluorescence. The microtubule formation is measured as a function of time, using a fluorescence plate reader. […] The method used is based on the procedure published by Donna M. Barron, et al, “Fluorescence-based high-throughput assay for antimicrotuble drugs” Analytical Biochemistry, 315: 49-56, 2003, which is incorporated by reference in its entirety. The excitation wavelength, in that assay, was set at 370 nm and the emission wavelength was set at 450 nm for the DAPI experiments.
A Bio-Tek FL 600 microplate Fluorescence Reader was used to measure the relative level of fluorescence in the DAPI assay.
Assays were conducted in 96-well plates. Each well contained a total volume of 0.1 mL consisting of PEM buffer (0.1 M Pipes, 1 mM EGTA, 1 mM MgCl2, pH 6.9), 0.2 mg bovine microtubule protein, and 10 μg of DAPI. […] The final DMSO concentration was 4%. The plates were incubated at 37° C. for 30 minutes and read in a fluorescence plate reader using an excitation wavelength of 360 nm and an emission wavelength of 460 nm. Fluorescence values were corrected for the sample without compound.
Experiments were done twice in triplicate. Results were subsequently combined and fit to a non-linear regression program.

[2] = tested on: U251 human CNS tumor cells (glioblastoma); details: temozolomide 80 mg/kg/dose po q4d×3
Description: Tumor Model: Each animal was implanted with one million U251 human CNS tumor cells from an in vitro cell line by ic injection with a 25 gauge needle. The day of tumor implantation (May 24, 2006) was designated as day 0. A sufficient number of mice were implanted so that animals with body weights in a range as narrow as possible were selected for the trial on the day of treatment initiation (day 1 after tumor implantation). Animals were randomly assigned to the treatment groups and individually identified by earmark codes.
A portion of this solution was then diluted with the complete vehicle to achieve the lower dosing concentration of 1.2 mg/mL. […] Temozolomide (Temodar, Schering Corporation) was prepared on each day of injection in Klucel+tween 80 at a concentration of 4 mg/mL. Temozolomide was administered within 5 minutes of formulation on the basis of exact body weight using a volume of 0.2 mL/10 g of body weight.
Data Collection: Animal health surveillance was conducted and mortality data were collected daily. The animals were weighed twice weekly starting with the first day of treatment.
Study Duration: The study was terminated 100 days after tumor implantation. Any animal found moribund or whose body weight dropped below 14 g was euthanized prior to study termination.
Parameters Evaluated: Number of 100-day survivors, median day of death, and the increase in lifespan based on median day of death and expressed as a percentage (% ILS), median survival time and the % ILS based on median survival time.

SMILES	ED50 Compound/ED50 Paclitaxel [1]	EC50 [1] [µM]	ILS based on median survival time [2] [%]	median day of death [2] [days]	median survival time [2] [days]	survivors day 100 [2]
CC(=O)O[C@@]12CO[C@@H]1C[C@H](O)[C@@]1(C)C(=O)[C@H](O)C3=C(C)[C@@H](OC(=O)[C@H](O)[C@@H](NC(=O)OC(C)(C)C)c4ccccc4)C[C@@](O)([C@@H](OC(=O)c4ccccc4)[C@H]21)C3(C)C [Docetaxel]	1.07	3.18 ± 0.45				
C/C(=C\c1csc(C)n1)[C@@H]1C[C@@H]2O[C@]2(C)CCC[C@H](C)[C@H](O)[C@@H](C)C(=O)C(C)(C)[C@@H](O)CC(=O)O1 [Epothilone B]	1.11	3.31 ± 0.51				
Cn1nnc2c(C(N)=O)ncn2c1=O [temozolomide, Temozolomide]			400	48	50	100 = 1)

— patent publication US10745408B2, “Biologically active taxane analogs and methods of treatment by oral administration” (Tapestry Pharmaceuticals, Inc., priority 2007, dated 2020)
